Source: PubChem BioAssay (NCI)
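Growth conditions: 96-well plates. Treatment: test compound, 48 hours, 5 concentrations. Analysis: linear interpolation between bracketing concentrations; unreached endpoints set to highest concentration. TGI marks complete inhibition of growth.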

Tests used:
Test in all cases: NCI tumour cell line growth inhibition, 48 h
HOP-18 NSCLC = system: HOP-18 NSCLC
OVCAR-4 ovarian = system: OVCAR-4 ovarian
CCRF-CEM leukemia = system: CCRF-CEM leukemia
786-0 renal = system: 786-0 renal
U251 CNS = system: U251 CNS
XF 498 CNS = system: XF 498 CNS
IGROV1 ovarian = system: IGROV1 ovarian
NCI/ADR-RES ovarian = system: NCI/ADR-RES ovarian
HCC-2998 colon = system: HCC-2998 colon
SNB-19 CNS = system: SNB-19 CNS
MALME-3M melanoma = system: MALME-3M melanoma
SR leukemia = system: SR leukemia
NCI-H522 lung = system: NCI-H522 lung
SK-MEL-5 melanoma = system: SK-MEL-5 melanoma
SK-MEL-28 melanoma = system: SK-MEL-28 melanoma
NCI-H23 lung = system: NCI-H23 lung
SNB-75 CNS = system: SNB-75 CNS
MCF7 breast = system: MCF7 breast
A498 renal = system: A498 renal
KM20L2 colon = system: KM20L2 colon
SNB-78 CNS = system: SNB-78 CNS
HS 578T breast = system: HS 578T breast
SK-OV-3 ovarian = system: SK-OV-3 ovarian
MDA-MB-435 = system: MDA-MB-435
M19-MEL melanoma = system: M19-MEL melanoma
RPMI-8226 leukemia = system: RPMI-8226 leukemia
K-562 leukemia = system: K-562 leukemia
BT-549 breast = system: BT-549 breast
TK-10 renal = system: TK-10 renal
MDA-N = system: MDA-N
KM12 colon = system: KM12 colon
RXF 393 renal = system: RXF 393 renal
SF-539 CNS = system: SF-539 CNS
UACC-257 melanoma = system: UACC-257 melanoma
SF-268 CNS = system: SF-268 CNS
DMS 114 small cell lung = system: DMS 114 small cell lung
SF-295 CNS = system: SF-295 CNS
HCT-15 colon = system: HCT-15 colon
ACHN renal = system: ACHN renal
NCI-H226 lung = system: NCI-H226 lung
UO-31 renal = system: UO-31 renal
DU-145 prostate = system: DU-145 prostate
T-47D breast = system: T-47D breast
DMS 273 small cell lung = system: DMS 273 small cell lung
HL-60(TB) leukemia = system: HL-60(TB) leukemia
NCI-H460 lung = system: NCI-H460 lung
MDA-MB-231 breast = system: MDA-MB-231 breast
UACC-62 melanoma = system: UACC-62 melanoma
SW-620 colon = system: SW-620 colon
LXFL 529 NSCLC = system: LXFL 529 NSCLC
EKVX NSCLC = system: EKVX NSCLC
SK-MEL-2 melanoma = system: SK-MEL-2 melanoma
MOLT-4 leukemia = system: MOLT-4 leukemia
HOP-62 NSCLC = system: HOP-62 NSCLC
OVCAR-3 ovarian = system: OVCAR-3 ovarian
SN12C renal = system: SN12C renal
HCT-116 colon = system: HCT-116 colon
A549 NSCLC = system: A549 NSCLC
COLO 205 colon = system: COLO 205 colon
M14 melanoma = system: M14 melanoma
LOX IMVI melanoma = system: LOX IMVI melanoma
OVCAR-5 ovarian = system: OVCAR-5 ovarian
OVCAR-8 ovarian = system: OVCAR-8 ovarian
DLD-1 colon = system: DLD-1 colon
CAKI-1 renal = system: CAKI-1 renal
HT29 colon = system: HT29 colon
HOP-92 NSCLC = system: HOP-92 NSCLC
PC-3 prostate = system: PC-3 prostate

Nc1ccc2c(SCc3ccc([N+](=O)[O-])cc3)c3ccccc3nc2c1
TGI (HOP-18 NSCLC): 26.5 µM | TGI (OVCAR-4 ovarian): 30.6 µM | TGI (CCRF-CEM leukemia): 5.15 µM | TGI (786-0 renal): 20.1 µM | TGI (U251 CNS): 38.1 µM | TGI (XF 498 CNS): 27.7 µM | TGI (IGROV1 ovarian): 39.5 µM | TGI (NCI/ADR-RES ovarian): 40.6 µM | TGI (HCC-2998 colon): > 54 µM | TGI (SNB-19 CNS): 59.1 µM | TGI (MALME-3M melanoma): 26.8 µM | TGI (SR leukemia): 5.05 µM | TGI (NCI-H522 lung): 15.1 µM | TGI (SK-MEL-5 melanoma): 28.4 µM | TGI (SK-MEL-28 melanoma): 33.5 µM | TGI (NCI-H23 lung): 32.8 µM | TGI (SNB-75 CNS): 34.7 µM | TGI (MCF7 breast): 27.6 µM | TGI (A498 renal): 49.2 µM | TGI (KM20L2 colon): 31.6 µM | TGI (SNB-78 CNS): 63.7 µM | TGI (HS 578T breast): 48 µM | TGI (SK-OV-3 ovarian): 42.7 µM | TGI (MDA-MB-435): 33.7 µM | TGI (M19-MEL melanoma): 26.5 µM | TGI (RPMI-8226 leukemia): 14.2 µM | TGI (K-562 leukemia): 27.9 µM | TGI (BT-549 breast): 32.1 µM | TGI (TK-10 renal): 26.5 µM | TGI (MDA-N): 31.1 µM | TGI (KM12 colon): 27 µM | TGI (RXF 393 renal): 42.3 µM | TGI (SF-539 CNS): 30.8 µM | TGI (UACC-257 melanoma): 33.6 µM | TGI (SF-268 CNS): 30.8 µM | TGI (DMS 114 small cell lung): 29.8 µM | TGI (SF-295 CNS): 36.8 µM | TGI (HCT-15 colon): 31.1 µM | TGI (ACHN renal): 14.5 µM | TGI (NCI-H226 lung): 38.3 µM | TGI (UO-31 renal): 27.2 µM | TGI (DU-145 prostate): 17.9 µM | TGI (T-47D breast): 22.6 µM | TGI (DMS 273 small cell lung): 39.2 µM | TGI (HL-60(TB) leukemia): 10.1 µM | TGI (NCI-H460 lung): 47.2 µM | TGI (MDA-MB-231 breast): > 55.8 µM | TGI (UACC-62 melanoma): 31.3 µM | TGI (SW-620 colon): 13.8 µM | TGI (LXFL 529 NSCLC): 18.5 µM | TGI (EKVX NSCLC): 59 µM | TGI (SK-MEL-2 melanoma): 32.4 µM | TGI (MOLT-4 leukemia): 6.73 µM | TGI (HOP-62 NSCLC): 46.5 µM | TGI (OVCAR-3 ovarian): 30.2 µM | TGI (SN12C renal): 34 µM | TGI (HCT-116 colon): 22.7 µM | TGI (A549 NSCLC): 48.9 µM | TGI (COLO 205 colon): 6.36 µM | TGI (M14 melanoma): 24.1 µM | TGI (LOX IMVI melanoma): 19.1 µM | TGI (OVCAR-5 ovarian): 35.9 µM | TGI (OVCAR-8 ovarian): 26.7 µM | TGI (DLD-1 colon): 6.04 µM | TGI (CAKI-1 renal): 28.7 µM | TGI (HT29 colon): 32.6 µM | TGI (HOP-92 NSCLC): 36.4 µM | TGI (PC-3 prostate): 29.7 µM
